Laboratory results: patent publication US6005099A, “Glucosamine disaccharides, method for their preparation, pharmaceutical composition comprising same, and their use” (priority 1993, dated 1999)
Entries after “also recorded” stand apart in the source; their conditions may differ.

How the values were obtained:
protease in LAL [1] = experiment: Endotoxicity, chromogenic LAL test with 0.1 mg/ml bovine serum albumin; format: biochemical, Limulus polyphemus; settings: n=4 or 6
Protocol: (§1) The endotoxicity was also measured in the chromogenic test, in which the activation of a protease in LAL by LPS was measured using a chromogen (Ac-Ile-Glu-Ala-Arg-pNA; Bio Whittaker Kit No. 50-650U). The colour formation (liberation of pNA (p-nitroaniline)) was measured at 405 nm.
(§2) Samples were pre-incubated at 37° C. during 10 minutes and subsequently chromogen-comprising LAL was added. The time required for reaching an optical density of 0.2 at 405 nm was measured. The endotoxin activity was calculated in comparison to a reference curve obtained for LPS standards.
The endotoxicity of the disaccharides E, F and G was determined using the chromogenic LAL test (see infra). However, instead of using 1 mg/ml bovine serum albumin, 0.1 mg/ml has been used. The results (n=4 or 6) were obtained in two series of experiments and are shown hereafter.

[2] = system: Limulus amoebocyte lysate (LAL); experiment: Endotoxicity in the limulus amoebocyte lysate (LAL) test (gelification and chromogenic); format: biochemical, Limulus polyphemus
Protocol: (§3) The endotoxicity and the biological activity of disaccharide A (example 1) and of disaccharide B (example 2) were determined and compared to that of lipopolysaccharide originating from Escherichia coli O111:B4 (Sigma, Product No. L3024), lipid A (Sigma, Product No. L5399; used as a starting material in example 4), and 3-O-deacylated lipid A originating from lipid A of Escherichia coli F583 (prepared as in the comparative example), but without purification by HPLC.
(§4) The endotoxicity was determined in the Limulus amoebocyte lysate (LAL) test. This test is based on the observation that endotoxins induce coagulation of the hemolymph of Limulus polyphemus.
In the gelification test serial dilutions of the compound to be tested were mixed with LAL 1:1, (v/v) (Haemachem Inc., sensitivity LAL 0.06 endotoxin units/ml), and the mixture was incubated for one hour at 37° C. Then gel formation was monitored by measuring the optical density at 405 nm. The last dilution which formed a gel was determined by inverting the reaction microplate. The endotoxin activity in the samples was determined by comparison with dilutions of a lipopolysaccharide standard (1 endotoxin unit=0.1 ng LPS).
The endotoxicity was also measured in the chromogenic test, in which the activation of a protease in LAL by LPS was measured using a chromogen (Ac-Ile-Glu-Ala-Arg-pNA; Bio Whittaker Kit No. 50-650U). […]

[3] = system: macrophages of C57BL/6 mice; experiment: Production of interleukin-1α (IL-1α) in supernatants of macrophages, ELISA; format: cell-based
From the text: Bone marrow was collected from hip, femur and tibia of six week old male C57BL/6 mice. After homogenization of the marrow suspension in Dulbecco modified medium and centrifugation, the pellet was resuspended in Dulbecco modified medium and the cells were cultivated at a concentration of 4×10^5 cells per ml in the same medium supplemented with 30% supernatant of L-929 fibroblasts (a common source for colony stimulating factor 1 [CSF-1]) and 20% horse serum.
After 7 days the mature macrophages were collected and resuspended in Dulbecco modified medium comprising 5% foetal calf serum to a concentration of 7×10^6 cells per ml. This cell suspension was mixed 1:1, (v/v) with samples diluted in the same medium and used in the biological tests performed in microplates with 70,000 cells/well (incubation at 37° C. for 22 hours, 100% humidity and 8% CO2).
The concentration of IL-1α in the supernatants of macrophages was measured by an ELISA-test (Kit GENZYME, Intertest-1α).

protease in LAL [4] = experiment: Endotoxicity, chromogenic LAL test; format: biochemical, Limulus polyphemus; settings: ng LPS per ng product, n = 1-10
Protocol: as §3, §4, §1, §2
The results are expressed in table 3 as: ng LPS per ng product.

## CCCCCCCCCCCC(=O)O[C@H](CCCCCCCCCCC)CC(=O)N[C@H]1[C@H](OC[C@H]2O[C@H](OP(=O)(O)O)[C@H](NC(=O)C[C@H](O)CCCCCCCCCCC)[C@@H](O)[C@@H]2O)O[C@H](CO)[C@@H](OP(=O)(O)O)[C@@H]1O [disaccharide A, 2-Deoxy-6-O-[2-deoxy-2-[(R)-3-dodecanoyloxytetradecanoylamino]-4-O-phosphono-β-D-glucopyranosyl]-2-[(R)-3-hydroxytetradecanoylamino]-α-D-glucopyranosyl dihydrogenphosphate]
Protease in LAL [1]
  Endotoxic activity in LAL: 0.000003 ± 0.000002 mg/mg
[2]
  Endotoxicity in LAL, in words: lowest endotoxicity
[3]; 500 μg/ml
  IL-1α at concentration 500 μg/ml: 75 ± 45 pg/mL
[3]; Mus musculus, Macrophage, 22 h, detection limit in the order of 15 pg/ml, read-out: IL-1α: Minimum activity detected, concentration
  minimal effective concentration: 16 µg/mL
[3]; at the concentration of minimum activity, LPS 1.56, lipid A 50, 3-O-deacylated lipid A 160, disaccharide A 16 μg/ml
  IL-1α at minimum activity detected: 19 ± 11 pg/mL
[3]; highest concentration tested 500 μg/ml
  IL-1α at highest concentration tested: 75 ± 45 pg/mL
[3]; macrophages of C57BL/6 mice, comparison partly at 500 μg/ml
  IL-1α production, in words: not significantly different; also recorded: at least as strong as by lipid A and 3-O-deacylated lipid A
Protease in LAL [4]
  Endotoxic activity in LAL, chromogen: 0.0014 ± 0.0013 ng/ng
